Laboratory results: patent publication US20060069132A1, “Azolecarboxamide herbicides” (priority 2004, published 2006)

Columns and labels:
barnyardgrass [1] = assay: Test C flooded paddy test; assay type: in vivo, Echinochloa crus-galli
How it was run: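 Visual rating, 0 (no effect) to 100 (complete control), vs. controls at 12–14 d in greenhouse. Postemergence: 1–4-leaf plants, 2–18 cm. Paddy: flooded, barnyardgrass at 2-leaf stage.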

Surinam grass = assay: Test B pre-/postemergence herbicide test; assay type: in vivo, Urochloa decumbens; conditions: for Surinam Grass plant response rating: postemergence
How it was run: (§1)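 Herbicidal effect was judged by eye on a 0–100 scale after plants stood 13 to 15 days in the greenhouse following pre- or postemergence treatment with surfactant-containing formulations.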

barnyardgrass [2] = assay: Test B pre-/postemergence herbicide test; assay type: in vivo, Echinochloa crus-galli; conditions: for Barnyardgrass plant response rating: postemergence, scale 0 (no effect) to 100 (complete control)
How it was run: (§2)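 Response was scored visually 13 to 15 days after treatment against untreated greenhouse controls, 0 meaning no effect and 100 complete control. Formulations (solvent mixture plus surfactant) went onto soil after planting, onto foliage of 1- to 4-leaf plants, and onto 2-leaf plants in a flooded paddy set including rice and barnyardgrass.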

barnyardgrass [3] = assay: Test B flooded paddy test; assay type: in vivo, Echinochloa crus-galli; conditions: 1000 g ai/ha, scale 0 to 100 (0 no effect, 100 complete control)
How it was run: (§3)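 Visual control ratings, 0–100 versus untreated controls, taken after 13 to 15 days in the greenhouse. Blackgrass received a postemergence spray at the 1- to 4-leaf stage (2–18 cm); ducksalad, umbrella sedge and barnyardgrass were flooded-paddy treated at 2 leaves.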

ducksalad [4] = assay: Test C flooded paddy test; assay type: in vivo, Heteranthera limosa
cocklebur = assay: Test B pre-/postemergence herbicide test; assay type: in vivo, Xanthium strumarium; conditions: for Cocklebur plant response rating: postemergence, scale 0 (no effect) to 100 (complete control)
How it was run: as §2

velvetleaf = assay: Test B pre-/postemergence herbicide test; assay type: in vivo, Abutilon theophrasti; conditions: for Velvetleaf plant response rating: postemergence
How it was run: as §1

morningglory = assay: Test B pre-/postemergence herbicide test; assay type: in vivo, Ipomoea coccinea; conditions: for Morningglory plant response rating: postemergence
How it was run: as §2

[5] = test system: smallflower umbrella sedge; assay: Test C flooded paddy test; assay type: in vivo, Cyperus difformis
wild oat = assay: Test B postemergence herbicide test; assay type: in vivo, Avena fatua; conditions: postemergence
How it was run: (§4)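 Plants grow to 1- to 4-leaf stage (2–18 cm) for postemergence spraying, or to 2-leaf stage for the paddy test. Formulated compound is applied. Greenhouse holding lasts 13–15 days. Response is scored visually relative to controls, 0 no effect to 100 complete control; a dash means no result.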

rice [6] = assay: Test C flooded paddy test; assay type: in vivo, Oryza sativa
How it was run: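 Injury scored visually against controls on a 0 (no effect) to 100 (complete control) scale, 12 to 14 days after treatment in greenhouse. Flooded paddy plants treated at 2-leaf stage; postemergence plants at 1- to 4-leaf stage, 2 to 18 cm tall.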

corn = assay: Test B pre-/postemergence herbicide test; assay type: in vivo, Zea mays; conditions: for Corn plant response rating: postemergence
How it was run: as §1

ducksalad [7] = assay: Test B flooded paddy test; assay type: in vivo, Heteranthera limosa; conditions: 1000 g ai/ha, scale 0 to 100 (0 no effect, 100 complete control)
How it was run: as §3

rice [8] = assay: Test B flooded paddy test; assay type: in vivo, Oryza sativa; conditions: 1000 g ai/ha, scale 0 to 100 (0 no effect, 100 complete control)
How it was run: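 Treated at 2-leaf (paddy) or 1–4-leaf, 2–18 cm (postemergence); greenhouse 13–15 d; visual score vs control, 0 none to 100 complete control; dash = not tested.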

giant foxtail = assay: Test B pre-/postemergence herbicide test; assay type: in vivo, Setaria faberi; conditions: for Foxtail, Giant plant response rating: postemergence
How it was run: as §1

blackgrass = assay: Test B postemergence herbicide test; assay type: in vivo, Alopecurus myosuroides; conditions: postemergence, visual rating, scale 0 (no effect) to 100 (complete control)
How it was run: as §3

wheat = assay: Test B postemergence herbicide test; assay type: in vivo, Triticum aestivum; design: key to Wheat plant response rating: 0 = no effect, 100 = complete control; conditions: postemergence
How it was run: as §4

rice [9] = assay: Test B pre-/postemergence herbicide test; assay type: in vivo, Oryza sativa; conditions: 0 = no effect, 100 = complete control, preemergence
How it was run: as §1

[10] = test system: small flower umbrella sedge; assay: Test B flooded paddy test; assay type: in vivo, Cyperus difformis; conditions: 1000 g ai/ha, scale 0 to 100 (0 no effect, 100 complete control)
How it was run: as §3

pigweed = assay: Test B pre-/postemergence herbicide test; assay type: in vivo, Amaranthus retroflexus; conditions: for Pigweed plant response rating: postemergence
How it was run: as §1

lambsquarters = assay: Test B pre-/postemergence herbicide test; assay type: in vivo, Chenopodium album; conditions: for Lambsquarters plant response rating: postemergence
How it was run: as §1

large crabgrass = assay: Test B pre-/postemergence herbicide test; assay type: in vivo, Digitaria sanguinalis; conditions: for Crabgrass, Large plant response rating: postemergence
How it was run: as §1

[11] = 125 g ai/ha, scale 0 to 100 (0 no effect, 100 complete control)
[12] = 250 g ai/ha, scale of 0 to 100, 0 is no effect, 100 is complete control
[13] = 500 g ai/ha, visual rating after 12 to 14 days, scale 0 to 100 (0 no effect, 100 complete control)
[14] = 125 g ai/ha, 0 = no effect, 100 = complete control, preemergence
[15] = 500 g ai/ha, visual rating, 0 = no effect, 100 = complete control, preemergence
[16] = 125 g ai/ha, visual rating, scale 0 (no effect) to 100 (complete control)
[17] = 500 g ai/ha, scale 0 to 100, 0 is no effect, 100 is complete control

CCn1nc(C(C)(C)C)cc1C(=O)Nc1ccnc(C(=O)N(C)C)c1 [Compound 256]
60: Surinam Grass plant response rating (0 to 100 scale) (Surinam grass; [14]) | Plant response rating, Surinam Grass (Surinam grass; [15]) | Barnyardgrass plant response rating (barnyardgrass [2]; 500 g ai/ha, visual rating) | Sedge, Umbrella plant response rating [5, 12] | Plant response rating, Sedge, Umbrella [5, 13] | Plant response rating, Foxtail, Giant (giant foxtail; [15]) | Pigweed plant response rating (pigweed; [17]) | Lambsquarters plant response rating (lambsquarters; [17])
20: Surinam Grass plant response rating (Surinam grass; [17]) | Blackgrass plant response rating (blackgrass; 500 g ai/ha) | Crabgrass, Large plant response rating (large crabgrass; [17])
0: Barnyardgrass plant response rating (barnyardgrass [1]; 62 g ai/ha, scale 0 to 100 (0 no effect, 100 complete control)) | Barnyardgrass plant response rating (barnyardgrass [1]; [11]) | Barnyardgrass plant response rating (barnyardgrass [1]; [12]) | Plant response rating, Barnyardgrass (barnyardgrass [1]; [13]) | Surinam Grass plant response rating (Surinam grass; [16]) | Barnyardgrass plant response rating (0 to 100 scale) (barnyardgrass [2]; [14]) | Barnyardgrass plant response rating (barnyardgrass [2]; 125 g ai/ha, visual rating) | Ducksalad plant response rating (ducksalad [4]; 62 g ai/ha, scale 0 to 100) | Ducksalad plant response rating (ducksalad [4]; [11]) | Cocklebur plant response rating (0 to 100 scale) (cocklebur; [14]) | Plant response rating, Cocklebur (cocklebur; [15]) | Cocklebur plant response rating (cocklebur; 125 g ai/ha, visual rating) | Cocklebur plant response rating (cocklebur; 500 g ai/ha, visual rating) | Velvetleaf plant response rating (0 to 100 scale) (velvetleaf; [14]) | Morningglory plant response rating (0 to 100 scale) (morningglory; [14]) | Plant response rating, Morningglory (morningglory; [15]) | Morningglory plant response rating (morningglory; [16]) | Sedge, Umbrella plant response rating ([5]; 62 g ai/ha, scale 0 to 100) | Sedge, Umbrella plant response rating [5, 11] | Rice plant response rating (rice [6]; 62 g ai/ha, scale 0 to 100) | Rice plant response rating (rice [6]; [11]) | Rice plant response rating (rice [6]; [12]) | Corn plant response rating (0 to 100 scale) (corn; [14]) | Plant response rating, Corn (corn; [15]) | Corn plant response rating (corn; [16]) | Foxtail, Giant plant response rating (0 to 100 scale) (giant foxtail; [14]) | Foxtail, Giant plant response rating (giant foxtail; [16]) | Blackgrass plant response rating (blackgrass; 125 g ai/ha) | Crabgrass, Large plant response rating (large crabgrass; [16])
65: Plant response rating, Ducksalad (ducksalad [4]; [13])
100: Plant response rating, Pigweed (pigweed; [15]) | Plant response rating, Lambsquarters (lambsquarters; [15]) | Plant response rating, Crabgrass, Large (large crabgrass; [15])
30: Barnyardgrass plant response rating (barnyardgrass [3]) | Velvetleaf plant response rating (velvetleaf; [17]) | Oat, Wild plant response rating (wild oat; [17]) | Wheat plant response rating (wheat; [17]) | Rice plant response rating (0 to 100 scale) (rice [9]; 125 g ai/ha) | Pigweed plant response rating (pigweed; [16]) | Lambsquarters plant response rating (lambsquarters; [16])
90: Ducksalad plant response rating (ducksalad [7])
70: Plant response rating, Barnyardgrass (barnyardgrass [2]; [15]) | Sedge, Umbrella plant response rating [10]
50: Rice plant response rating (rice [8]) | Foxtail, Giant plant response rating (giant foxtail; [17])
15: Ducksalad plant response rating (ducksalad [4]; [12]) | Plant response rating, Rice (rice [6]; [13])
80: Plant response rating, Velvetleaf (velvetleaf; [15]) | Plant response rating, Rice (rice [9]; 500 g ai/ha, visual rating)
10: Velvetleaf plant response rating (velvetleaf; [16]) | Morningglory plant response rating (morningglory; [17]) | Oat, Wild plant response rating (wild oat; [16]) | Corn plant response rating (corn; [17]) | Wheat plant response rating (wheat; [16]) | Crabgrass, Large plant response rating (0 to 100 scale) (large crabgrass; [14])
